# Patent publication US20170291905A1, “ARGININE […] INHIBITORS AND USES THEREOF” (Epizyme, Inc., priority 2014, published 2017)
# Target: T1, PRMT1 (Homo sapiens, UniProt Q99873)
# T1 construct: host or cells: RKO cells
# Assay: RKO methylation assay, In Cell Western (ICW) for mono-methyl arginine and DNA content
# Format: cell-based
# Details: RKO cells, 72 hours, mono-methyl arginine signal normalised to DRAQ5, percent activation
# Description: RKO Methylation Assay RKO adherent cells were purchased from ATCC (American Type Culture Collection), Manassas, Va., USA. DMEM/Glutamax medium, penicillin-streptomycin, heat inactivated fetal bovine serum, 0.05% trypsin and D-PBS were purchased from Life Technologies, Grand Island, N.Y., USA. Odyssey blocking buffer, 800CW goat anti-rabbit IgG (H+L) antibody, and Licor Odyssey infrared scanner were purchased from Licor Biosciences, Lincoln, Nebr., USA. Mono-methyl arginine antibody was purchased from Cell Signaling Technology, Danvers, Mass., USA. Methanol was purchased from VWR, Franklin, Mass., USA. 10% Tween 20 was purchased from KPL, Inc., Gaithersburg, Md., USA. DRAQ5 was purchased from Biostatus Limited, Leicestershire, UK. RKO adherent cells were maintained in growth medium (DMEM/Glutamax medium supplemented with 10% v/v heat inactivated fetal bovine serum and 100 units/mL penicillin-streptomycin) and cultured at 37° C. under 5% CO2. Cell Treatment, in Cell Western (ICW) for Detection of Mono-Methyl Arginine and DNA Content. RKO cells were seeded in assay medium at a concentration of 20,000 cells per mL to a poly-D-lysine coated 384 well culture plate (BD Biosciences 356697) with 50 μL per well. Compound (100 nL) from a 96-well source plate was added directly to 384 well cell plate. Plates were incubated at 37° C., 5% CO2 for 72 hours. After three days of incubation, plates were brought to room temperature outside of the incubator for ten minutes and blotted on paper towels to remove cell media. 50 μL of ice cold 100% methanol was added directly to each well and incubated for 30 min at room temperature. After 30 min, plates were transferred to a Biotek EL406 plate washer and washed 2 times with 100 μL per well of wash buffer (1×PBS). Next 60 μL per well of Odyssey blocking buffer (Odyssey Buffer with 0.1% Tween 20 (v/v)) were added to each plate and incubated 1 hour at room temperature. Blocking buffer was removed and 20 μL per well of primary antibody was added (mono-methyl arginine diluted 1:200 in Odyssey buffer with 0.1% Tween 20 (v/v)) and plates were incubated overnight (16 hours) at 4° C. Plates were washed 5 times with 100 μL per well of wash buffer. Next 20 μL per well of secondary antibody was added (1:200 800CW goat anti-rabbit IgG (H+L) antibody, 1:1000 DRAQ5 (Biostatus limited) in Odyssey buffer with 0.1% Tween 20 (v/v)) and incubated for 1 hour at room temperature. The plates were washed 5 times with 100 μL per well wash buffer then 2 times with 100 μL per well of water. Plates were allowed to dry at room temperature then imaged on the Licor Odyssey machine which measures integrated intensity at 700 nm and 800 nm wavelengths. Both 700 and 800 channels were scanned. […] Each plate included fourteen control wells of DMSO only treatment (minimum activation) as well as fourteen control wells for maximum activation treated with 20 μM of a reference compound. The average of the ratio values for each control type was calculated and used to determine the percent activation for each test well in the plate. Reference compound was serially diluted three-fold in DMSO for a total of nine test concentrations, beginning at 20 μM. Percent activation was determined and EC30 curves were generated using triplicate wells per concentration of compound.
# T1 sequence (Q99873 whole entry): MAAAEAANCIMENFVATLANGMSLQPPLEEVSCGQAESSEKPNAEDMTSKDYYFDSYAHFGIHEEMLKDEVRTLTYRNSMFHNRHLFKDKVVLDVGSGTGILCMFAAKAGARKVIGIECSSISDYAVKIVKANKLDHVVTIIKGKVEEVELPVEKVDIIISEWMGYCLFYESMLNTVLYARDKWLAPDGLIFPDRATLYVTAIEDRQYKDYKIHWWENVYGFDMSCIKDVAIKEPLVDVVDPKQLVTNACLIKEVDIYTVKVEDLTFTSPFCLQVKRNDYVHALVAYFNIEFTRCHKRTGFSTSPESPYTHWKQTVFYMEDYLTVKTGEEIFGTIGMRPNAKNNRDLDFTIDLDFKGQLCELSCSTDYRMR
row,Structure (SMILES),PRMT1 RGG ICW EC30 [nM]
1,CC[C@H]1CC[C@@H](c2n[nH]cc2CN(C)CCNC)CC1 [compound 1],83.01
2,"CCOCCOCC1(COCCOCC)CCC(c2n[nH]cc2CN(C)CCNC)CC1 [compound 39, N1-((3-(4,4-bis((2-ethoxyethoxy)methyl)cyclohexyl)-1H-pyrazol-4-yl)methyl)-N1,N2-dimethylethane-1,2-diamine]",1388
3,CNCCN(C)Cc1c[nH]nc1C1CCC(COCCC2CCOCC2)(COCCC2CCOCC2)CC1 [compound 40],458.5
4,"CNCCN(C)Cc1c[nH]nc1C1CCC(COCC2CC2)(COCC2CC2)CC1 [compound 41, N1-((3-(4,4-bis((cyclopropylmethoxy)methyl)cyclohexyl)-1H-pyrazol-4-yl)methyl)-N1,N2-dimethylethane-1,2-diamine]",67.48
5,"CNCCN(C)Cc1c[nH]nc1C1CCC(CO)(CO)CC1 [compound 44, (4-(4-((methyl(2-(methylamino)ethyl)amino)methyl)-1H-pyrazol-3-yl)cyclohexane-1,1-diyl)dimethanol]",>5000
6,"CCC1(CC)C[C@]2(CC[C@H](c3n[nH]cc3CN(C)CCNC)CC2)NC1=O [compound 47, (5s,8s)-3,3-diethyl-8-(4-((methyl(2-(methylamino)ethyl)amino)methyl)-1H-pyrazol-3-yl)-1-azaspiro[4.5]decan-2-one]",367.1
7,"CCC1(CC)C[C@]2(CC[C@@H](c3n[nH]cc3CN(C)CCNC)CC2)NC1=O [compound 48, (5r,8r)-3,3-diethyl-8-(4-((methyl(2-(methylamino)ethyl)amino)methyl)-1H-pyrazol-3-yl)-1-azaspiro[4.5]decan-2-one]",>5000

# Second part, the compound after the results:
row,PRMT1 RGG ICW EC30 [nM],Structure (SMILES)
1,51.41,"CN(C)CCN(C)Cc1c[nH]nc1[C@H]1CC[C@@]2(CC1)CC(C)(C)CO2 [compound 42, N1-((3-((5S,8S)-3,3-dimethyl-1-oxaspiro[4.5]decan-8-yl)-1H-pyrazol-4-yl)methyl)-N1,N2,N2-trimethylethane-1,2-diamine]"
2,622.8,"CN(C)CCN(C)Cc1c[nH]nc1[C@H]1CC[C@]2(CC1)CC(C)(C)CO2 [compound 43, N1-((3-((5r,8r)-3,3-dimethyl-1-oxaspiro[4.5]decan-8-yl)-1H-pyrazol-4-yl)methyl)-N1,N2,N2-trimethylethane-1,2-diamine]"
3,185.1,"CNCCN(C)Cc1c[nH]nc1C1=CCC2(CC1)CC(C)(C)CO2 (centres unmarked) [compound 46, N1-((3-(3,3-dimethyl-1-oxaspiro[4.5]dec-7-en-8-yl)-1H-pyrazol-4-yl)methyl)-N1,N2-dimethylethane-1,2-diamine]"
4,111.3,"CNCCN(C)Cc1ccnn1[C@H]1CC[C@@]2(CC1)CC(C)(C)CO2 [compound 49, N1-((1-((5s,8s)-3,3-dimethyl-1-oxaspiro[4.5]decan-8-yl)-1H-pyrazol-5-yl)methyl)-N1,N2-dimethylethane-1,2-diamine]"
